Our source for the IC50 values is ChEMBL document CHEMBL1133756, “A potent aldose reductase inhibitor, (2S,4S)-6-fluoro-2', 5'-dioxospiro[chroman-4,4'-imidazolidine]-2-carboxamide (Fidarestat): its absolute configuration and interactions with the aldose reductase by X-ray crystallography” (J Med Chem, 2000).

Assay [1] concerns the target Aldo-keto reductase family 1 member B1 (Rattus norvegicus, UniProt P07943). Description: Tested for in vitro inhibition activity against rat Aldose reductase (AR).
Assay [2] concerns the target Aldo-keto reductase family 1 member B1 (Homo sapiens, UniProt P15121). Description: Tested for in vitro inhibition activity against human Aldose reductase (human AR).
Assay [3] addresses T1, Aldo-keto reductase family 1 member A1 (Homo sapiens, UniProt P14550).
T1 sequence (P14550 whole entry): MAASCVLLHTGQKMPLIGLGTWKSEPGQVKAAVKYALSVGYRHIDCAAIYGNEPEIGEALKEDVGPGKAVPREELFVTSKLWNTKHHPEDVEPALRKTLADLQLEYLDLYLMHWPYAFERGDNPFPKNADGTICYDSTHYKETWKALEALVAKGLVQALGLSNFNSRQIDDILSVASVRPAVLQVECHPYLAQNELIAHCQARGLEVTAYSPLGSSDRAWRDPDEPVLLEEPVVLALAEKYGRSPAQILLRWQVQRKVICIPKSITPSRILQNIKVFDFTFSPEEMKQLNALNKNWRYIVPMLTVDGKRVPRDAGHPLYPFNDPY
Description: Tested for in vitro inhibition activity against human aldehyde reductase (AHR).

One may read the IC50 as the concentration at which inhibition is half-maximal. A high value points to a need for much substance.

Regarding `NC(=O)[C@H]1C[C@]2(NC(=O)NC2=O)c2cc(F)ccc2O1`, it took 570 nM to reach half-maximal inhibition in assay [1] (IC50). This lies in the sub-micromolar range.

Consider `NC(=O)[C@@H]1C[C@]2(NC(=O)NC2=O)c2cc(F)ccc2O1`, for which the IC50 in assay [2] was found to be 9 nM; in assay [3], 1200 nM; in assay [1], 35 nM.
